The values below come from patent US11607404B2, “Combinations of RAD51 and PARP inhibitors” (Cyteir Therapeutics, Inc., priority 2019, dated 2023).

What all share (assay): Tumor growth inhibition, subcutaneous engrafted tumor model
Holding throughout (type): in vivo, mice

The subject of assay [1] is HBCx11 model. Particulars: HRD Positive, RAD51 High, BRCA1 Mut, PALB2 WT, 67A 80 mg/kg QD, olaparib 100 mg/kg QD, combo both. Here is the method:
(§1) Immunodeficient mice were subcutaneously engrafted in the rear flank with the tumor cells. The tumors were allowed to grow to a size of about 100 to about 200 mm^3 prior to being randomized and grouped into treatment arms. For models […] through […] the four treatment arms were vehicle, Compound 67A at 80 mg/kg QD, olaparib at 100 mg/kg QD, and Compound 67A+Olaparib at 80 mg/kg QD and 100 mg/kg QD, respectively. For models J000101173 through TM00091 the treatment arms were vehicle, Compound 67A at 40 mg/kg QD, olaparib at 50 mg/kg QD, and Compound 67A+Olaparib at 40 mg/kg QD and 50 mg/kg QD, respectively. The tumors were measured either once weekly or twice weekly.
(§2) Percent Tumor Growth Inhibition (% TGI) was calculated by taking the mean volume of each of the treatment arms, and comparing the treatment arms to the vehicle arms using the following equation

In assay [2] the test system is HBCx12B model. Particulars: HRD Positive, RAD51 High, BRCA1 Meth, PALB2 WT, 67A 80 mg/kg QD, olaparib 100 mg/kg QD, combo both. Here is the method: as §1, §2
The test system of assay [3] is HBCx16 model. The following applies: HRD Positive, RAD51 High, BRCA1 Meth, PALB2 WT, 67A 80 mg/kg QD, olaparib 100 mg/kg QD, combo both. Here is the method: as §1, §2
The subject of assay [4] is HBCx17 model. Particulars: HRD Positive, RAD51 High, BRCA2 Mut, PALB2 WT, 67A 80 mg/kg QD, olaparib 100 mg/kg QD, combo both. The protocol: as §1, §2
For assay [5], the system named is J000100675 model. Particulars: HRD Negative, RAD51 Low, BRCA WT, PALB2 WT, 67A 40 mg/kg QD, olaparib 50 mg/kg QD, combo both. The protocol: as §1, §2
Assay [6] deals with J000101173 model. The following applies: HRD Positive, RAD51 Low, BRCA WT, PALB2 WT, 67A 40 mg/kg QD, olaparib 50 mg/kg QD, combo both. Here is the method:
as §1, §2

Assay [7] has as its system TM000113 model. The following applies: HRD Negative, RAD51 Low, BRCA WT, PALB2 WT, 67A 40 mg/kg QD, olaparib 50 mg/kg QD, combo both. The protocol:
as §1, §2

Assay [8] deals with TM00090 model. Particulars: HRD Positive, RAD51 Low, BRCA1 Meth, BRCA2 Mut, PALB2 WT, 67A 40 mg/kg QD, olaparib 50 mg/kg QD, combo both. Here is the method: as §1, §2
The test system of assay [9] is TM00096 model. Particulars: HRD Positive, RAD51 Low, BRCA WT, PALB2 WT, 67A 40 mg/kg QD, olaparib 50 mg/kg QD, combo both. The protocol: as §1, §2
Assay [10] deals with TM01079 model. Particulars: HRD Positive, RAD51 Low, BRCA1 Meth, PALB2 WT, 67A 40 mg/kg QD, olaparib 50 mg/kg QD, combo both. Here is the method: as §1, §2

Take `CC(C)OC(=O)Nc1ccc(-c2cnc([C@H]3CC[C@H](NC(=O)OC(C)C)CC3)s2)c(S(=O)(=O)NC(C)(C)C)c1` [Compound 67A, trans-isopropylN-[3-(tert-butylsulfamoyl)-4-[2-[4-(isopropoxycarbonylamino)cyclohexyl]thiazol-5-yl]phenyl]carbamate]: the “% TGI” value in [1] was 23.39%; in assay [2], −3.27%; in [3], −22.45%; in [4] it was −51.13%; in assay [5], 36.69%; in assay [6], 19.87%. For the same molecule, the “% TGI” value in assay [7] was 7.24%; in assay [8] it was 51.82%; in assay [9] it was −25.4%; in assay [10], 26.73%.
